Measurements from patent US10045968B2, “Bicyclic compound, production and use thereof” (TOBIRA THERAPEUTICS, INC., priority 2001, dated 2018).

Target: T1, human CCR5 (Homo sapiens, UniProt P51681)
T1 construct: expressed in transfected cells; host or cells: CHO-K1 cells, stably transfected with pCKR5 (pcDNA3.1 backbone), Geneticin-selected
Test: Inhibition of [125I]-RANTES binding to CCR5/CHO cells (CCR5 antagonist activity)
Conditions: 40 min, test compound 1 μM, 100 pM [125I]-RANTES as ligand, room temperature, read-out: Binding Inhibitory Ratio (%)
Method: (1) Cloning of Human CCR5 Chemokine Receptor Cloning of CCR5 gene was conducted from human spleen cDNA by PCR method. Using cDNA (0.5 ng) from spleen (Toyobo, QUICK-Clone cDNA) as a genetic template, primer sets prepared by referring to CCR5 gene nucleotide sequence described by Samson et al. (Biochemistry 35 (11), 3362-3367 (1996), i.e., (2) Preparation of Expression Plasmid of Human CCR5 […] The DNA fragments and an expression plasmid for animal cells pcDN A3.1 (Funakoshi), which was previously digested by XbaI and BamHI, were mixed and ligated by DNA Ligation Kit Ver. 2 (Takara Shuzo). Transformation of E. coli JM109 competent cells (Takara Shuzo) gave plasmid pCKR5. (3) Introduction of the Human CCR5 Expression Plasmid into CHO-K1 Cells and Expression Thereof […] The cells were washed with PBS (Lifetech Oriental), centrifuged (1000 rpm, 5 minutes), and resuspended in PBS. The DNA was introduced into the cells using Gene Pulser (BioRad) according to the following conditions. […] The cells were diluted to a concentration of 10^4 cells/ml, and inoculated in 96 well plate (Becton Dickinson), to obtain Geneticin-resistant cells. The Geneticin-resistant cells ware grown in 96 well plate (Becton Dickinson), and CCR5 expressing cells were selected from the resistant cells. Namely, in an assay buffer, (Ham F12 medium containing 0.5% BSA, and 20 mM HEPES (Wako Pure Chemical Ind., pH 7.2)), containing 200 pM [^125I]-RANTES (Amersham) as a ligand, the cells were subjected to binding reaction at room temperature for 40 minutes. The well plate containing the cells was washed with ice-cooled PBS, added with 1M NaOH in an amount of 50 μl/well and stirred. The cells to which the ligand bound specifically, i.e., CCR5/CHO cells, were selected by measurement of radioactivity by γ-counter. (4) Evaluation of Compounds Based on CCR5 Antagonist Activity The CCR5/CHO cells were inoculated in 96 well microplate at a concentration of 5×10^4 cells/well, and grown for 24 hours. After removal of the medium by aspiration, to each well was added an assay buffer containing a test compound (1 μM), and (^125I)/RANTES (Amersham) used as a ligand at a concentration of 100 pM. The mixture was subjected to the reaction at room temperature for 40 minutes. After removal of the assay buffer by aspiration, each well was washed with cooled PBS twice. Then, 200 μl MicroScint 20 (Packerd) was added to each well, and the radioactivity of each well was measured by TopCount (Packard). According to the method above, inhibitory ratios to CCR5 binding of the test compounds were determined.

T1 sequence (P51681 whole entry): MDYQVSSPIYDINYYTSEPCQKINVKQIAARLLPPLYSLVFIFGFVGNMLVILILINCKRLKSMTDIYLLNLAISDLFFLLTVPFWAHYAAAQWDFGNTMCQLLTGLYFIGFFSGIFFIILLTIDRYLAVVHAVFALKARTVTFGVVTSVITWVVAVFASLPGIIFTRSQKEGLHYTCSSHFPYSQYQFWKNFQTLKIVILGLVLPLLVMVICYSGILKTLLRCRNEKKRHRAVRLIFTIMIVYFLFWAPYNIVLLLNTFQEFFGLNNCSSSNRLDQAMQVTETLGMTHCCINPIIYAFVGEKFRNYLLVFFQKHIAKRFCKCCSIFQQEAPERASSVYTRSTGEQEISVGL

Compound	inhibition at 1 µM [%]
CCCCOCCOc1ccc(-c2ccc3c(c2)C=C(C(=O)Nc2ccc([S+]([O-])Cc4nncn4CCC)cc2)CCCN3CC(C)C)cc1 (single isomer, unassigned; (+)) [Compound 48, (+)-8-[4-(2-butoxyethoxy)phenyl]-1-isobutyl-N-[4-[[(4-propyl-4H-1,2,4-triazol-3-yl)methyl]sulfinyl]phenyl]-1,2,3,4-tetrahydro-1-benzazocine-5-carboxamide]	97
CCCCOCCOc1ccc(-c2ccc3c(c2)C=C(C(=O)Nc2ccc([S+]([O-])Cc4cncn4CCC)cc2)CCCN3CCC)cc1 (single isomer, unassigned; (-)) [Compound 9, (−)-8-[4-(2-butoxyethoxy)phenyl]-1-propyl-N-[4-[[[1-propylimidazol-5-yl]methyl]sulfinyl]phenyl]-1,2,3,4-tetrahydro-1-benzoazocine-5-carboxamide]	100
CCCCOCCOc1ccc(-c2ccc3c(c2)C=C(C(=O)Nc2ccc([S+]([O-])Cc4nccn4CCC)cc2)CCCN3CCC)cc1 (single isomer, unassigned; (-)) [Compound 22, (−)-8-[4-(2-butoxyethoxy)phenyl]-1-propyl-N-[4-[[[1-propylimidazol-2-yl]methyl]sulfinyl]phenyl]-1,2,3,4-tetrahydro-1-benzoazocine-5-carboxamide]	98
CCCCOCCOc1ccc(-c2ccc3c(c2)C=C(C(=O)Nc2ccc([S+]([O-])Cc4cncn4CCC)cc2)CCCCN3CC(C)C)cc1 (single isomer, unassigned; (-)) [Compound 26, (−)-9-[4-(2-butoxyethoxy)phenyl]-1-isobutyl-N-[4-[[[1-propylimidazol-5-yl]methyl]sulfinyl]phenyl]-2,3,4,5-tetrahydro-1H-1-benzoazonin-6-carboxamide]	100
CCCCOCCOc1ccc(-c2ccc3c(c2)C=C(C(=O)Nc2ccc([S+]([O-])Cc4cncn4CCC)cc2)CCCN3Cc2cnn(C)c2)cc1 (single isomer, unassigned; (-)) [Compound 34, (−)-8-[4-(2-butoxyethoxy)phenyl]-1-((1-methylpyrazol-4-yl)methyl)-N-[4-[[[1-propylimidazol-5-yl]methyl]sulfinyl]phenyl]-1,2,3,4-tetrahydro-1-benzoazocine-5-carboxamide]	97
CCCCOCCOc1ccc(-c2ccc3c(c2)C=C(C(=O)Nc2ccc(CN(C)C4CCOCC4)cc2)CCCO3)cc1 [Compound 1, 8-[4-(2-butoxyethoxy)phenyl]-N-[4-[[N-methyl-N-(tetrahydropyran-4-yl)amino]methyl]phenyl]-3,4-dihydro-2H-1-benzoxocin-5-carboxamide]	94
CCCCOCCOc1ccc(-c2ccc3c(c2)C=C(C(=O)Nc2ccc(CN(C)C4CCOCC4)cc2)CCCN3CCC)cc1 [Compound 2, 8-[4-(2-butoxyethoxy)phenyl]-1-propyl-N-[4-[[N-methyl-N-(tetrahydropyran-4-yl)amino]methyl]phenyl]-1,2,3,4-tetrahydro-1-benzazocine-5-carboxamide]	96
CCCCOCCOc1ccc(-c2ccc3c(c2)C=C(C(=O)Nc2ccc(SCc4cncn4CCC)cc2)CCCN3CCC)cc1 [Compound 3, 8-[4-(2-butoxyethoxy)phenyl]-1-propyl-N-[4-[[[1-propylimidazol-5-yl]methyl]sulfanyl]phenyl]-1,2,3,4-tetrahydro-1-benzazocine-5-carboxamide]	91
CCCCOCCOc1ccc(-c2ccc3c(c2)C=C(C(=O)Nc2ccc(S(=O)(=O)Cc4cncn4CCC)cc2)CCCN3CCC)cc1 [Compound 5, 8-[4-(2-butoxyethoxy)phenyl]-1-propyl-N-[4-[[[1-propylimidazol-5-yl]methyl]sulfonyl]phenyl]-1,2,3,4-tetrahydro-1-benzazocine-5-carboxamide]	86
CCCCOCCOc1ccc(-c2ccc3c(c2)C=C(C(=O)Nc2ccc([S+]([O-])Cc4cncn4CCC)cc2)CCCN3CC(C)C)cc1 (centres unmarked) [Compound 7, 8-[4-(2-butoxyethoxy)phenyl]-1-isobutyl-N-[4-[[[1-propyl-1H-imidazol-5-yl]methyl]sulfinyl]phenyl]-1,2,3,4-tetrahydro-1-benzazocine-5-carboxamide]	100

Same assay, conditions: test compound 1 μM, 100 pM [125I]-RANTES as ligand, room temperature, 40 minutes

Compound	Binding Inhibitory Ratio (%)
CCCCOCCOc1ccc(-c2ccc3c(c2)C=C(C(=O)Nc2ccc([S+]([O-])Cc4nncn4CCC)cc2)CCCN3CCC)cc1 (single isomer, unassigned; (+)) [Compound 53, (+)-8-[4-(2-butoxyethoxy)phenyl]-1-propyl-N-[4-[[(4-propyl-4H-1,2,4-triazol-3-yl)methyl]sulfinyl]phenyl]-1,2,3,4-tetrahydro-1-benzazocin-5-carboxamide]	100
CCCCOCCOc1ccc(-c2ccc3c(c2)C=C(C(=O)Nc2ccc([S+]([O-])Cc4cncn4CCC)cc2)CCCN3CC(C)C)cc1.CS(=O)(=O)O (single isomer, unassigned; (-)) [Compound 14, (−)-8-[4-(2-butoxyethoxy)phenyl]-1-isobutyl-N-[4-[[[1-propyl-1H-imidazol-5-yl]methyl]sulfinyl]phenyl]-1,2,3,4-tetrahydro-1-benzoazocine-5-carboxamide methanesulfonate]	98
C=C(C)CN1CCCC(C(=O)Nc2ccc([S+]([O-])Cc3cncn3CCC)cc2)=Cc2cc(-c3ccc(OCCOCCCC)cc3)ccc21 (single isomer, unassigned; (-)) [Compound 23, (−)-8-[4-(2-butoxyethoxy)phenyl]-1-(2-methyl-2-propen-1-yl)-N-[4-[[[1-propylimidazol-5-yl]methyl]sulfinyl]phenyl]-1,2,3,4-tetrahydro-1-benzoazocine-5-carboxylic]	97
CCCCOCCOc1ccc(-c2ccc3c(c2)C=C(C(=O)Nc2ccc([S+]([O-])Cc4nncn4CCC)cc2)CCCN3CC(C)C)cc1 (single isomer, unassigned; (-)) [Compound 49, (−)-8-[4-(2-butoxyethoxy)phenyl]-1-isobutyl-N-[4-[[(4-propyl-4H-1,2,4-triazol-3-yl)methyl]sulfinyl]phenyl]-1,2,3,4-tetrahydro-1-benzazocine-5-carboxamide]	91
CCCCOCCOc1ccc(-c2ccc3c(c2)C=C(C(=O)Nc2ccc([S+]([O-])Cc4nncn4CCC)cc2)CCCN3CCC)cc1 (single isomer, unassigned; (-)) [Compound 52, (−)-8-[4-(2-butoxyethoxy)phenyl]-1-propyl-N-[4-[[[4-propyl-4H-1,2,4-triazol-3-yl]methyl]sulfinyl]phenyl]-1,2,3,4-tetrahydro-1-benzazocine-5-carboxamide]	96
CCCCOCCOc1ccc(-c2ccc3c(c2)C=C(C(=O)Nc2ccc([S+]([O-])Cc4cncn4CCC)cc2)CCCN3CCC)cc1 (centres unmarked) [Compound 4, 8-[4-(2-butoxyethoxy)phenyl]-1-propyl-N-[4-[[[1-propylimidazol-5-yl]methyl]sulfinyl]phenyl]-1,2,3,4-tetrahydro-1-benzazocine-5-carboxamide]	100
CCCCOCCOc1ccc(-c2ccc3c(c2)C=C(C(=O)Nc2ccc(SCc4cncn4CCC)cc2)CCCN3CC(C)C)cc1 [Compound 6]	98
